In US20260108546A1 (ELI LILLY AND COMPANY, priority 2024, published 2026) one finds Emax and EC50 data, which are given here for four molecules.

In the experiment the target is T1, hGIP-R (Homo sapiens, UniProt P48546).
T1 construct: expressed in transfected cells; host or cells: HEK-293 clonal cell lines
T1 sequence (P48546 22-466): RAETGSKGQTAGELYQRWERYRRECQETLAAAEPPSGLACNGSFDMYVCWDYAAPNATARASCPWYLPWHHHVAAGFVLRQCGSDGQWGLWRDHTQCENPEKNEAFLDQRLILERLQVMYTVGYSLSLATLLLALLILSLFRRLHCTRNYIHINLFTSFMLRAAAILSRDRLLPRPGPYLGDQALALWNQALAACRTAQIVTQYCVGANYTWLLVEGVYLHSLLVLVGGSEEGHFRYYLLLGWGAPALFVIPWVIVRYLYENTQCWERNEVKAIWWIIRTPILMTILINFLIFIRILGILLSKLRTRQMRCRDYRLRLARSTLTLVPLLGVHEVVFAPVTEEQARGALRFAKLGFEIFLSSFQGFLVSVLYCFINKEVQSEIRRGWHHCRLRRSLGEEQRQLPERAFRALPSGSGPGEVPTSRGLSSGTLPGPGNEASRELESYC
The experiment in a line: Functional hGIP-R Assay (cAMP formation, HTRF). It is filed as cell-based. As to conditions: for Emax: cAMP efficacy, percent of maximal response to GIP(1-42)OH, 37° C., 0.1% bovine casein, arithmetic mean ± SEM; for EC50: cAMP potency, HEK-293 cells expressing hGIP-R, incubated at 37° C. in the presence of 0.1% bovine casein, geometric mean, read-out: Human GIP-R EC50, nM (SEM, n). The method in brief: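 HEK-293 cells expressing hGIP-R were given a 20-point compound series in DMEM with 0.1% casein, 250 μM IBMX, 1% DMSO, 30 min at 37 °C. cAMP was read by HTRF against a standard curve, expressed as % of human GIP (1-42) OH maximum; EC50 and Emax came from four-parameter fits.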

The structures appear in SMILES notation. Where a name gives a salt, the structure may show the parent alone.

As usually defined, the Emax is the size of the effect at its maximum, as opposed to the concentration needed. The term EC50 denotes the concentration giving half of the maximal effect. Regarding `[2H]C([2H])([2H])n1cc(C[C@H](C(=O)NC(C)(C)Cn2nc(C(F)(F)F)cc2-c2ccc(C(C)(C)OP(=O)(O)O)nc2)N2CC[C@@]3(C[C@@H]3c3ccc(-c4cnc5nn(C)cc5c4)cc3Cl)C2=O)cn1` [Example 195, 2-(5-(1-(2-((R)-2-((1S,3R)-1-(2-Chloro-4-(2-methyl-2H-pyrazolo[3,4-b]pyridin-5-yl)phenyl)-4-oxo-5-azaspiro[2.4]heptan-5-yl)-3-(1-(methyl-d3)-1H-pyrazol-4-yl)propanamido)-2-methylpropyl)-3-(trifluoromethyl)-1H-pyrazol-5-yl)pyridin-2-yl)propan-2-yl dihydrogen phosphate, ammonia salt], the Emax turned out to be 88.8% and the EC50 was 2.36 nM.

`Cc1nc(-c2cnc3nc(C4CC4)cn3c2)ccc1[C@H]1C[C@@]12CCN([C@H](Cc1cnn(C(F)F)c1)C(=O)NC(C)(C)Cn1nc(C(F)(F)F)cc1-c1cnc(C(C)(C)OP(=O)(O)O)nc1)C2=O` [Example 196, 2-(5-(1-(2-((R)-2-((1R,3R)-1-(6-(2-Cyclopropylimidazo[1,2-a]pyrimidin-6-yl)-2-methylpyridin-3-yl)-4-oxo-5-azaspiro[2.4]heptan-5-yl)-3-(1-(difluoromethyl)-1H-pyrazol-4-yl)propanamido)-2-methylpropyl)-3-(trifluoromethyl)-1H-pyrazol-5-yl)pyrimidin-2-yl)propan-2-yl dihydrogen phosphate, ammonia salt]: the Emax came out at 95.7% and the EC50 turned out to be 0.601 nM.

For `Cc1nc(-c2cnc3nc(C4CC4)cn3c2)ccc1[C@H]1C[C@@]12CCN([C@H](Cc1cnn(C(F)F)c1)C(=O)NC(C)(C)Cn1nc(C(F)(F)F)cc1-c1ccc(C(C)(C)OP(=O)(O)O)nc1)C2=O` [Example 197, 2-(5-(1-(2-((R)-2-((1R,3R)-1-(6-(2-Cyclopropylimidazo[1,2-a]pyrimidin-6-yl)-2-methylpyridin-3-yl)-4-oxo-5-azaspiro[2.4]heptan-5-yl)-3-(1-(difluoromethyl)-1H-pyrazol-4-yl)propanamido)-2-methylpropyl)-3-(trifluoromethyl)-1H-pyrazol-5-yl)pyridin-2-yl)propan-2-yl dihydrogen phosphate, ammonia salt], the Emax was 119% and the EC50 was 0.66 nM.

Regarding `[2H]C([2H])([2H])n1cc(C[C@H](C(=O)NC(C)(C)Cn2nc(C(F)(F)F)cc2-c2cnc(C(C)(C)OP(=O)(O)O)nc2)N2CC[C@@]3(C[C@@H]3c3ccc(-c4cnc5nn(C)cc5c4)cc3Cl)C2=O)cn1` [Example 198, 2-(5-(1-(2-((R)-2-((1S,3R)-1-(2-Chloro-4-(2-methyl-2H-pyrazolo[3,4-b]pyridin-5-yl)phenyl)-4-oxo-5-azaspiro[2.4]heptan-5-yl)-3-(1-(methyl-d3)-1H-pyrazol-4-yl)propanamido)-2-methylpropyl)-3-(trifluoromethyl)-1H-pyrazol-5-yl)pyrimidin-2-yl)propan-2-yl dihydrogen phosphate, ammonia salt], the Emax was found to be 90.3% and the EC50 was determined as 1.81 nM.
